According to the NIST ThermoML archive (doi:10.1021/je700406p):

Assay: wn = mass fraction of the nth substance listed
Conditions: Liquid, Vibrating tube method

CC(C)(N)CO [2-amino-2-methylpropan-1-ol] + O
Conditions	mass density [kg/m3]
352.85 K, 12992 kPa, w1 = 0.2821	967.1
352.85 K, 13990 kPa, w1 = 0.2821	967.5
352.85 K, 14990 kPa, w1 = 0.2821	968
352.85 K, 15988 kPa, w1 = 0.2821	968.4
352.85 K, 16991 kPa, w1 = 0.2821	968.8
352.85 K, 17991 kPa, w1 = 0.2821	969.2
352.85 K, 18988 kPa, w1 = 0.2821	969.6
352.85 K, 19987 kPa, w1 = 0.2821	970.1
352.85 K, 20985 kPa, w1 = 0.2821	970.5
352.86 K, 500 kPa, w1 = 0.1997	965
352.86 K, 1000 kPa, w1 = 0.1997	965.2
352.86 K, 2000 kPa, w1 = 0.1997	965.7
352.86 K, 3000 kPa, w1 = 0.1997	966.2
352.86 K, 4000 kPa, w1 = 0.1997	966.5
352.86 K, 5000 kPa, w1 = 0.1997	966.9
352.86 K, 6000 kPa, w1 = 0.1997	967.3
352.86 K, 7000 kPa, w1 = 0.1997	967.8
352.86 K, 8000 kPa, w1 = 0.1997	968.2
352.86 K, 9009 kPa, w1 = 0.1997	968.6
352.86 K, 10002 kPa, w1 = 0.1997	969.1
352.86 K, 11001 kPa, w1 = 0.1997	969.5
352.86 K, 12000 kPa, w1 = 0.1997	970
352.86 K, 13000 kPa, w1 = 0.1997	970.4
352.86 K, 14000 kPa, w1 = 0.1997	970.8
352.86 K, 15003 kPa, w1 = 0.1997	971.2
352.86 K, 16001 kPa, w1 = 0.1997	971.6
352.86 K, 17001 kPa, w1 = 0.1997	972.1
352.86 K, 18002 kPa, w1 = 0.1997	972.5
352.86 K, 19001 kPa, w1 = 0.1997	972.9
352.86 K, 20029 kPa, w1 = 0.1997	973.3
352.86 K, 21004 kPa, w1 = 0.1997	973.8
352.86 K, 22004 kPa, w1 = 0.1997	974.1
352.86 K, 23000 kPa, w1 = 0.1997	974.5
352.86 K, 24004 kPa, w1 = 0.1997	975
352.87 K, 1039 kPa, w1 = 0.4976	945
352.87 K, 2018 kPa, w1 = 0.4976	945.5
352.87 K, 3005 kPa, w1 = 0.4976	946
352.87 K, 4018 kPa, w1 = 0.4976	946.5
352.87 K, 5000 kPa, w1 = 0.4976	946.9
352.87 K, 5997 kPa, w1 = 0.4976	947.4
352.87 K, 7007 kPa, w1 = 0.4976	947.9
352.87 K, 7999 kPa, w1 = 0.4976	948.4
352.87 K, 8994 kPa, w1 = 0.4976	948.9
352.87 K, 9996 kPa, w1 = 0.4976	949.4
352.87 K, 10996 kPa, w1 = 0.4976	949.8
352.87 K, 12002 kPa, w1 = 0.4976	950.3
352.87 K, 13000 kPa, w1 = 0.4976	950.8
352.87 K, 13993 kPa, w1 = 0.4976	951.2
352.87 K, 15004 kPa, w1 = 0.4976	951.7
352.87 K, 16002 kPa, w1 = 0.4976	952.2
352.87 K, 16989 kPa, w1 = 0.4976	952.6
352.87 K, 18011 kPa, w1 = 0.4976	953.1
352.87 K, 18989 kPa, w1 = 0.4976	953.5
352.87 K, 20010 kPa, w1 = 0.4976	954
352.87 K, 20989 kPa, w1 = 0.4976	954.4
362.73 K, 999 kPa, w1 = 0.2821	954.1
362.73 K, 1015 kPa, w1 = 0.4976	936.3
362.73 K, 1999 kPa, w1 = 0.2821	954.5
362.73 K, 2010 kPa, w1 = 0.4976	936.7
362.73 K, 2998 kPa, w1 = 0.2821	955.1
362.73 K, 3022 kPa, w1 = 0.4976	937.3
362.73 K, 3996 kPa, w1 = 0.2821	955.4
362.73 K, 3997 kPa, w1 = 0.4976	937.8
362.73 K, 4996 kPa, w1 = 0.2821	955.9
362.73 K, 5010 kPa, w1 = 0.4976	938.3
362.73 K, 5993 kPa, w1 = 0.2821	956.3
362.73 K, 6002 kPa, w1 = 0.4976	938.8
362.73 K, 6993 kPa, w1 = 0.2821	956.8
362.73 K, 6999 kPa, w1 = 0.4976	939.3
362.73 K, 7992 kPa, w1 = 0.4976	939.8
362.73 K, 8006 kPa, w1 = 0.2821	957.3
362.73 K, 8992 kPa, w1 = 0.2821	957.7
362.73 K, 8997 kPa, w1 = 0.4976	940.3
362.73 K, 9994 kPa, w1 = 0.2821	958.1
362.73 K, 10028 kPa, w1 = 0.4976	940.9
362.73 K, 10990 kPa, w1 = 0.4976	941.3
362.73 K, 10992 kPa, w1 = 0.2821	958.6
362.73 K, 11992 kPa, w1 = 0.2821	959.1
362.73 K, 11996 kPa, w1 = 0.4976	941.8
362.73 K, 12991 kPa, w1 = 0.2821	959.5
362.73 K, 13002 kPa, w1 = 0.4976	942.3
362.73 K, 13992 kPa, w1 = 0.2821	959.9
362.73 K, 13994 kPa, w1 = 0.4976	942.8
362.73 K, 14986 kPa, w1 = 0.4976	943.3
362.73 K, 14988 kPa, w1 = 0.2821	960.4
362.73 K, 15987 kPa, w1 = 0.2821	960.8
362.73 K, 15995 kPa, w1 = 0.4976	943.8
362.73 K, 16985 kPa, w1 = 0.4976	944.3
362.73 K, 16990 kPa, w1 = 0.2821	961.3
362.73 K, 18007 kPa, w1 = 0.4976	944.8
362.73 K, 18019 kPa, w1 = 0.2821	961.7
362.73 K, 18985 kPa, w1 = 0.2821	962.1
362.73 K, 18989 kPa, w1 = 0.4976	945.2
362.73 K, 19985 kPa, w1 = 0.2821	962.6
362.73 K, 19988 kPa, w1 = 0.4976	945.7
362.73 K, 21004 kPa, w1 = 0.4976	946.2
362.74 K, 532 kPa, w1 = 0.1997	957.9
362.74 K, 1001 kPa, w1 = 0.1997	958
362.74 K, 1014 kPa, w1 = 0.4002	946.1
362.74 K, 1992 kPa, w1 = 0.4002	946.6
362.74 K, 2000 kPa, w1 = 0.1997	958.5
362.74 K, 3000 kPa, w1 = 0.1997	959
362.74 K, 3010 kPa, w1 = 0.4002	947.1
362.74 K, 4000 kPa, w1 = 0.1997	959.4
362.74 K, 4009 kPa, w1 = 0.4002	947.5
362.74 K, 5000 kPa, w1 = 0.1997	960.1
362.74 K, 5001 kPa, w1 = 0.4002	948
362.74 K, 6000 kPa, w1 = 0.1997	960.4
362.74 K, 6003 kPa, w1 = 0.4002	948.5
362.74 K, 6999 kPa, w1 = 0.4002	949
362.74 K, 7000 kPa, w1 = 0.1997	960.7
362.74 K, 7990 kPa, w1 = 0.4002	949.4
362.74 K, 8001 kPa, w1 = 0.1997	961.2
362.74 K, 8995 kPa, w1 = 0.4002	949.9
362.74 K, 9009 kPa, w1 = 0.1997	961.6
362.74 K, 10004 kPa, w1 = 0.1997	962.1
362.74 K, 10039 kPa, w1 = 0.4002	950.4
362.74 K, 10986 kPa, w1 = 0.4002	950.8
362.74 K, 11001 kPa, w1 = 0.1997	962.4
362.74 K, 11991 kPa, w1 = 0.4002	951.3
362.74 K, 12999 kPa, w1 = 0.4002	951.8
362.74 K, 13999 kPa, w1 = 0.4002	952.2
362.74 K, 14990 kPa, w1 = 0.4002	952.7
362.74 K, 15993 kPa, w1 = 0.4002	953.2
362.74 K, 16984 kPa, w1 = 0.4002	953.6
362.74 K, 18005 kPa, w1 = 0.4002	954.1
362.74 K, 18993 kPa, w1 = 0.4002	954.5
362.74 K, 19978 kPa, w1 = 0.4002	955
362.74 K, 21014 kPa, w1 = 0.4002	955.4
